Assay results: patent US20190038575A1, “Methods for Protecting Cells During Cancer Therapy” (Applied Biology, Inc., priority 2017, published 2019)

Experiments:
[1] = system: postjunctional alpha1-adrenoceptors; conditions: Brown 1988; cited from earlier work
[2] = system: postjunctional alpha2-adrenoceptors; conditions: Brown 1988; cited from earlier work
[3] = Safety study: topical application to entire scalp with BP, HR and EKG holter monitoring; format: in vivo, human; conditions: topical application across the entire scalp, synephrine at up to 6 g
Procedure: Use of weak acting A1AR agonists or agonists having a low affinity for all other adrenergic receptors, as described herein, can provide methods of treatment and/or prophylaxis that are a substantial improvement over conventional methods of use. Improvements can include enhancements in efficacy and/or safety. For example, safety tests were performed with embodiments of the composition using electrocardiogram (EKG) and blood pressure/heart rate (BP/HR) monitoring. […] Details of the study are described in the examples below.
A study was conducted to determine the safety of a topical solution containing 37% synephrine HCl (the composition of formula 01). 10 mL of the topical solution was applied to the entire scalp and rubbed thoroughly at a base line. An additional 10 mL was applied after 2 hours. Blood pressure (BP), heart rate (HR) and EKG measurements were taken using a wearable holter monitor.
In total, 40 female subjects ages 18-65 in good health were enrolled. 30 of the subjects received the active solution and 10 received the placebo (vehicle only). To evaluate the effect of the composition on systemic hemodynamic parameters, a holter monitor was placed on each subject. At baseline, BP and HR were recorded. BP, HR, and EKG data were collected over a 24-hour period via the holter monitor. […] EKG parameters (e.g., ST segments, arrhythmias, etc.) were normal throughout the 24 hour period.

A1AR [4] = conditions: weak A1AR agonist; Brown 1988; cited from earlier work
A1AR [5] = conditions: Ma 2010, Hibino 2009; cited from earlier work
[6] = oral form; Stohs 2011; cited from earlier work

Structure (SMILES)	potency of the (+) form relative to the (−) form [1]	potency of the (+) form relative to the (−) form [2]	adverse events (EKG and BP/HR monitoring) [3]	potency less than that of phenylephrine (A1AR [4])	A1AR binding affinity (A1AR [5])	cardiac or hemodynamic changes [6]
CNC[C@@H](O)c1ccc(O)cc1 [S-(+)-synephrine]	one to two orders of magnitude less	one to two orders of magnitude less	–	–	–	–
CNCC(O)c1ccc(O)cc1 (stereo not drawn) [synephrine, p-synephrine]	–	–	No adverse events	approximately 150 fold	low	not been shown to induce significant cardiac or hemodynamic changes
